Assay results as given in patent US20230264009A1, “DISINFECTING CAP KIT FOR LUER ACCESS DEVICES” (SterileCare Inc., priority 2022, published 2023).
Where a name gives a salt, the structure may show the parent alone.

Experiments:
[1] = tested on: 48-h-old biofilms of bacterial and fungal strains; assay: MBEC Assay, 24 h exposure (summary); type: cell-based; conditions: following 24 h of treatment
Method: A biofilm cultivation cell composition was provided. This fifth composition was created using an MBEC Assay® biofilm inoculator, consisting of a polystyrene lid with 96 downward-protruding pegs and a corresponding base used to grow biofilms. A standardized inoculum was diluted in an appropriate biofilm growth medium to achieve a viable cell count of 1.5 × 10^6 CFU/mL of bacterial cells or […] CFU/mL of fungal cells. Then, 150 µL of this inoculum was transferred into each appropriate well, and the peg lids were inserted into the microtiter plates. The plates were sealed with Parafilm and were incubated at optimum temperature for 48 h with slight rocking for bacteria and shaking at 200 rpm for fungal strains. After incubation, the peg lid was removed from the base and rinsed twice with sterile phosphate-buffered saline (PBS) for 2 min to remove loosely attached non-sessile cells. Before the antimicrobial challenge, the pegs in column 1 (n = 8) were considered the biofilm growth control; these pegs were removed from the lids, placed into 200 µL of recovery medium, and analyzed for starting biofilm cell numbers as described below. […] After the antimicrobial challenge, the pegs were rinsed twice with sterile PBS for 2 min and placed into a new 96-well plate containing 200 µL of recovery medium. The recovery plates were sealed with Parafilm, and biofilm cells were dislodged from the pegs by sonication for 30 min with a Branson 3510 bath sonicator. The biofilm cells in the recovery medium were serially diluted, and a drop dilution assay was performed to enumerate the viable cells. MBEC values were determined as the minimum concentration of antimicrobials that yielded a viable cell count at or lower than the 125 CFU/mL detection limit.

E. coli SK2 [2] = assay: Checkerboard titration, FICI; type: cell-based, Escherichia coli; conditions: tetrasodium EDTA + chlorhexidine HCl
Method: (§1) A fourth composition and solution included tetrasodium EDTA with ethanol or chlorhexidine HCl. This fourth composition and solution were created using checkerboard titration methods using micro broth dilution in 96-well microtiter plates. The concentrations of antimicrobials used were based on previously determined MIC values. Briefly, 200 µL of two-fold dilutions of tetrasodium EDTA and ethanol or chlorhexidine HCl were prepared in MH or MH II broth with standardized cell suspension. […] Microtiter plates were incubated at 37° C. for 24 h, and the results were analyzed. Each test was performed in duplicate and included a growth control without adding any antimicrobials.

[3] = tested on: Staphylococcus aureus ON89; assay: Checkerboard titration, FMCI; type: cell-based; conditions: tetrasodium EDTA + chlorhexidine HCl; S. aureus ON89
Method: (§2) An assay was made using a minimum inhibitory concentration (MIC) and minimum bactericidal concentration (MBC) and minimum fungicidal concentration (MFC) determination. The MIC was determined by the micro broth dilution method in 96-well plates. Serial two-fold dilutions of tetrasodium EDTA (from 2% to 0.015%), ethanol (from 50% to 0.1%) and chlorhexidine HCl (from 100 µg/mL to 0.025 µg/mL) were prepared in MH broth with a final volume of 90 µL per well. A 10 µL containing 1 × 10^5 bacterial cells or 2 × 10^3 fungal cells were added to each well. The inoculated plates were covered with a lid, sealed with Parafilm, and incubated for 24 h at 37° C. with slight rocking on a tilting platform shaker. After incubation, the optical density at 600 nm (OD 600 ) of the cultures in each well was measured using an xMark™ Microplate Absorbance Spectrophotometer (Bio-Rad). […] MBCs and MFCs were determined by transferring 100 µL from each well with no apparent growth onto appropriate agar plates, followed by incubation for 24 h at 37° C.
as §1

[4] = tested on: Staphylococcus epidermidis ON170; assay: Checkerboard titration, FMCI; type: cell-based; conditions: tetrasodium EDTA + chlorhexidine HCl; S. epidermidis ON170
Method: as §2, §1

Serratia marcescens SK2 [5] = assay: Checkerboard titration, FMCI; type: cell-based; conditions: tetrasodium EDTA + chlorhexidine HCl; S. marcescens SK2
Method: as §2, §1

[6] = tested on: Pseudomonas aeruginosa SK1; assay: Checkerboard titration, FMCI; type: cell-based; conditions: tetrasodium EDTA + chlorhexidine HCl; P. aeruginosa SK1
Method: as §2, §1

Escherichia coli ON29 [7] = assay: Checkerboard titration, FMCI; type: cell-based; conditions: tetrasodium EDTA + chlorhexidine HCl; E. coli ON29
Method: as §2, §1

Proteus mirabilis ON153 [8] = assay: Checkerboard titration, FMCI; type: cell-based; conditions: tetrasodium EDTA + chlorhexidine HCl; P. mirabilis ON153
Method: as §2, §1

[9] = tested on: Stenotrophomonas maltophilia ON17; assay: Checkerboard titration, FMCI; type: cell-based; conditions: tetrasodium EDTA + chlorhexidine HCl; S. maltophilia ON17
Method: as §2, §1

Candida albicans SK4b [10] = assay: Checkerboard titration, FMCI; type: cell-based; conditions: tetrasodium EDTA + chlorhexidine HCl; C. albicans SK4b
Method: as §2, §1

[11] = tested on: 48-h old biofilms of test organisms; assay: Rapid biofilm eradication, 2 h exposure; type: cell-based; conditions: alone at the MBEC
Method: Determining rapid biofilm eradication by tetrasodium EDTA, ethanol, and chlorhexidine HCl alone and in combination was performed. After biofilm formation, control pegs (n = 6) were removed and analyzed to determine the starting biofilm cell numbers via the drop dilution method. The 48-h old biofilms on the pegs were exposed to different concentrations of test antimicrobials, dissolved in an appropriate growth medium, for two h to evaluate their efficacy alone and in combination. Antimicrobial solutions tested against each organism included each agent alone at the MBEC, double combinations at the FBEC, and triple combinations ranging from 5 to 20% ethanol, 2.5-5 µg/mL chlorhexidine HCl and 1- 3% tetrasodium EDTA. Following treatment, pegs were washed twice with sterile PBS, and the biofilm cells were dislodged into recovery medium and enumerated as described above.
The method for rapid biofilm eradication ability of test antimicrobials alone and in combination against 48-h-old biofilms within two h exposure time included (1) choosing different concentrations of test antimicrobials to assess their potency in eradicating preformed biofilms of study organisms within two h. Then (2) the quantitative recovery from biofilms following exposure to the antimicrobial solutions for bacterial strains (FIGS. 6A-6C) and fungal strains (FIG. 7) was evaluated.

S. epidermidis SK9 [12] = assay: Checkerboard titration, FICI; type: cell-based, Staphylococcus epidermidis; conditions: tetrasodium EDTA + chlorhexidine HCl
Method: as §1

MRSA ON184 [13] = assay: Checkerboard titration, FICI; type: cell-based, Staphylococcus aureus; conditions: tetrasodium EDTA + chlorhexidine HCl
Method: as §1

C. albicans ON47 [14] = assay: Checkerboard titration, FICI; type: cell-based, Candida albicans; conditions: tetrasodium EDTA + chlorhexidine HCl
Method: as §1

MRSA ON184 [15] = assay: Checkerboard titration, FMCI; type: cell-based, Staphylococcus aureus; conditions: tetrasodium EDTA + chlorhexidine HCl
Method: as §2, §1

C. albicans ON47 [16] = assay: Checkerboard titration, FMCI; type: cell-based, Candida albicans; conditions: tetrasodium EDTA + chlorhexidine HCl
Method: as §2, §1

E. coli SK2 [17] = assay: Checkerboard titration, FMCI; type: cell-based, Escherichia coli; conditions: tetrasodium EDTA + chlorhexidine HCl
Method: as §2, §1

[18] = tested on: Staphylococcus aureus ON89; assay: Checkerboard titration, FICI; type: cell-based; conditions: tetrasodium EDTA + chlorhexidine HCl; S. aureus ON89
Method: as §1

[19] = tested on: Staphylococcus epidermidis ON170; assay: Checkerboard titration, FICI; type: cell-based; conditions: tetrasodium EDTA + chlorhexidine HCl; S. epidermidis ON170
Method: as §1

Serratia marcescens SK2 [20] = assay: Checkerboard titration, FICI; type: cell-based; conditions: tetrasodium EDTA + chlorhexidine HCl; S. marcescens SK2
Method: as §1

[21] = tested on: Pseudomonas aeruginosa SK1; assay: Checkerboard titration, FICI; type: cell-based; conditions: tetrasodium EDTA + chlorhexidine HCl; P. aeruginosa SK1
Method: as §1

Escherichia coli ON29 [22] = assay: Checkerboard titration, FICI; type: cell-based; conditions: tetrasodium EDTA + chlorhexidine HCl; E. coli ON29
Method: as §1

Proteus mirabilis ON153 [23] = assay: Checkerboard titration, FICI; type: cell-based; conditions: tetrasodium EDTA + chlorhexidine HCl; P. mirabilis ON153
Method: as §1

[24] = tested on: Stenotrophomonas maltophilia ON17; assay: Checkerboard titration, FICI; type: cell-based; conditions: tetrasodium EDTA + chlorhexidine HCl; S. maltophilia ON17
Method: as §1

Candida albicans SK4b [25] = assay: Checkerboard titration, FICI; type: cell-based; conditions: tetrasodium EDTA + chlorhexidine HCl; C. albicans SK4b
Method: as §1

S. epidermidis SK9 [26] = assay: Checkerboard titration, FMCI; type: cell-based, Staphylococcus epidermidis; conditions: tetrasodium EDTA + chlorhexidine HCl
Method: as §2, §1

[H]/N=C(\N/C(=N/[H])NCCCCCCNC(=N)NC(=N)Nc1ccc(Cl)cc1)Nc1ccc(Cl)cc1 [Chlorhexidine HCl, chlorhexidine HCl]
Concentration alone able to eradicate all established biofilms [1]: 100 µg/mL
Concentration in combination giving FICI (E. coli SK2 [2]): 0.1 µg/mL
Concentration in combination giving FMCI [3]: 0.2 µg/mL
Concentration in combination giving FMCI [4]: 0.4 µg/mL
Concentration in combination giving FMCI (Serratia marcescens SK2 [5]): 1.6 µg/mL
Concentration in combination giving FMCI [6]: 1.6 µg/mL
Concentration in combination giving FMCI (Escherichia coli ON29 [7]): 0.2 µg/mL
Concentration in combination giving FMCI (Proteus mirabilis ON153 [8]): 1.6 µg/mL
Concentration in combination giving FMCI [9]: 0.4 µg/mL
Concentration in combination giving FMCI (Candida albicans SK4b [10]): 0.8 µg/mL
Eradication of preformed biofilms [11]: failed to eradicate
Concentration in combination giving FICI (S. epidermidis SK9 [12]): 0.025 µg/mL
Concentration in combination giving FICI (MRSA ON184 [13]): 0.2 µg/mL
Concentration in combination giving FICI (C. albicans ON47 [14]): 0.8 µg/mL
Concentration in combination giving FMCI (MRSA ON184 [15]): 0.4 µg/mL
Concentration in combination giving FMCI (C. albicans ON47 [16]): 1.6 µg/mL
Concentration in combination giving FMCI (E. coli SK2 [17]): 0.2 µg/mL
Concentration in combination giving FICI [18]: 0.1 µg/mL
Concentration in combination giving FICI [19]: 0.05 µg/mL
Concentration in combination giving FICI (Serratia marcescens SK2 [20]): 1.5 µg/mL
Concentration in combination giving FICI [21]: 0.8 µg/mL
Concentration in combination giving FICI (Escherichia coli ON29 [22]): 0.2 µg/mL
Concentration in combination giving FICI (Proteus mirabilis ON153 [23]): 0.8 µg/mL
Concentration in combination giving FICI [24]: 0.2 µg/mL
Concentration in combination giving FICI (Candida albicans SK4b [25]): 0.8 µg/mL
Concentration in combination giving FMCI (S. epidermidis SK9 [26]): 0.4 µg/mL
